From PMC6382835, “A critical evaluation of TRPA1-mediated locomotor behavior in zebrafish as a screening tool for novel anti-nociceptive drug discovery” (Scientific Reports, 2019)

Experiments:
mouse TRPA1 (mTRPA1) = molecular target: T1, mouse TRPA1 (mTRPA1) (Mus musculus, UniProt Q8BLA8); experiment: FLIPR calcium signaling assay in mTRPA1-transfected HEK293 cells; format: cell-based; conditions: Schild plot against ASP7663-induced calcium influx, mTRPA1
T1 construct: host or cells: HEK293 (ATCC CRL-1573), transient transfection
T1 sequence (Q8BLA8 whole entry): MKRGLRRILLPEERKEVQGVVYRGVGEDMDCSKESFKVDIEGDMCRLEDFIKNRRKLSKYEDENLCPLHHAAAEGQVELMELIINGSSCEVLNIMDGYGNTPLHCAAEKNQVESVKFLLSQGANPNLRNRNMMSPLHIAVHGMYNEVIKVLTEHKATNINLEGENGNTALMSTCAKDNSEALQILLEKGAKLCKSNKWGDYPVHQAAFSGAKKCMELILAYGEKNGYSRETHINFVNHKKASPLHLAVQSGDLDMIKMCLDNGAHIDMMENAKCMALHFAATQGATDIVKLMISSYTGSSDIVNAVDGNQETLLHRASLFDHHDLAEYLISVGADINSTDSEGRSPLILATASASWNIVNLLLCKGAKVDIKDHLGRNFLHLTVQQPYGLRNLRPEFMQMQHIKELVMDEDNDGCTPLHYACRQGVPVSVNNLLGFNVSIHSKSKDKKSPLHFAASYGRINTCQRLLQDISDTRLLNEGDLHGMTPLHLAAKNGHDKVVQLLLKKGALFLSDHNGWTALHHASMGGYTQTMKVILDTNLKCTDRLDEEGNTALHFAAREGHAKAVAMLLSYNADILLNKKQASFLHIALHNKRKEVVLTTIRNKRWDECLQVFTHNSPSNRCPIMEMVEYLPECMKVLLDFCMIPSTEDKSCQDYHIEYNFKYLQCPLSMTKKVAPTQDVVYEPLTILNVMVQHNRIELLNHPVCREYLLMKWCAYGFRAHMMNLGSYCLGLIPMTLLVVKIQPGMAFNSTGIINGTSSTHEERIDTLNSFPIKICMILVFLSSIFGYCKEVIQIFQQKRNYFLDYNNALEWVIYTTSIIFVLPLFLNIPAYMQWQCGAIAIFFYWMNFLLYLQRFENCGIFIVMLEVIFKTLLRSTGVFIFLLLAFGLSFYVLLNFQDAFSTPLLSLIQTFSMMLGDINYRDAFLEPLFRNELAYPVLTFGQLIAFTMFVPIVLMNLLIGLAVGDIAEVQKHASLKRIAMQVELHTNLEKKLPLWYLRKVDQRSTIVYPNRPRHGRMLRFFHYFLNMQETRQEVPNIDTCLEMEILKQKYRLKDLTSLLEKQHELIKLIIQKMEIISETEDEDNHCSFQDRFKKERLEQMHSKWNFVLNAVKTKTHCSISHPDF
Description: HEK293 cells (#CRL-1573, ATCC, VA, USA) were cultured in DMEM media (#11995-065, Sigma-Aldrich, MO, USA) with 10% Fetal Bovine Serum (#F0926-500ML, Thermo Fisher, MA, USA). The cells were maintained in a 37 °C incubator with consistent 5% CO2. They were seeded in a clear 6 well flat bottom cell culture plates (#07-200-83, Corning ®, Thermo Fisher) with 500,000 cells/2 ml/well for transfection, in serum-free Opti-MEM (#31985070, Gibco®, Thermo Fisher). These cells were transfected with pcDNA3.1-mTRPA1 (#MR227099, OriGene, MD, USA), pcDNA3.1-zTRPA1a, or pcDNA3.1-zTRPA1b (a gift from Dr. David Prober) using X-tremeGENE^TM 9 (#6365809001, Sigma-Aldrich). After 24 hours, the transfected cells were dislodged with trypsin, resuspended in Opti-MEM, and seeded 25,000 cells/25 µl/well in 384-well black polystyrene microplates (#82051-296, VWR, PA, USA) for testing calcium signaling the following day. Experiments were carried out with the approval of the Institutional Biohazard Committee (#13-013-16).
Twenty-five µl calcium sensitive Fluorescent Imaging Plate Reader (FLIPR) Calcium 6 assay dye (#R8190, Molecular Devices, CA, USA) was added to each well of a 384-well plate containing HEK293 cells transiently expressing mTRPA1, zTRPA1a, and zTRPA1b, respectively. The cells were incubated for an hour prior to the recording of intracellular calcium levels in a FlexStation3 Multi-Mode Microplate Reader (#R8190, Molecular Devices) as previously described. All compounds were diluted in calcium buffer made with 1x HBSS (#14025-092, Thermo Fisher), 20 mM HEPES (#15630-080, Thermo Fisher), and 2.5 mM Probenecid (#P8761, Sigma-Aldrich). For agonist studies, ASP7663 (#5178, Tocris, Bristol, UK) was diluted in 1% DMSO-containing calcium buffer at desired concentrations and was added during the recording. The TRPA1 antagonists HC-030031 (#2896, Tocris), TCS-5861528 (#3938, Tocris), and A-967079 (#4716, Tocris) were diluted in calcium buffer, and 5 µl of 10x solutions were added 10 minutes prior to the recording. The same amount of DMSO (1%) was added to all control groups to maintain similar DMSO levels with the experimental groups. During the assay, the cells were challenged by a 5x ASP7663 solution or 1% DMSO solution at the 20 seconds time point, and both solutions were diluted in calcium buffer. Relative fluorescence units (RFU) were measured for 120 seconds period by the Flexstation. Area under the curve (AUC) was further evaluated from individual calcium influx data (Supplemental Figs 2 and 4) to plot does-response curve of antagonists. For each specific antagonist concentration we plotted Log(dose ratio-1) against the antagonist concentration in a Schild plot. The dose ratio (A’/A) equals the EC50 of the agonist ([…]) in the presence of a concentration of the antagonist (A’) divided by the EC50 of the agonist in the absence of antagonist (A). The x-intercept of the Schild plot was used to identify the antagonist-receptor affinity (pA2).
All data are presented as means ± standard error of the mean (SEM). For our in vitro statistical analysis, AUC of calcium influx (RFU) was measured to plot dose-response curves, which were further analyzed by nonlinear regression analysis. Mean RFU of the first 10 seconds was used as a baseline of the AUC. EC50 values of the dose-response curves were further used to plot Schild curves, and the curves were analyzed with linear regression analysis. For the mice von Frey test, mechanical thresholds were analyzed with two-way ANOVA followed by a Bonferonni test for multiple comparison analysis. For the zebrafish behavior test, the data from the first five seconds following drug administration were excluded, as zebrafish displacement during that period was highly influenced by liquid dispensing. AUC of all curves were measured and analyzed by one-way ANOVA. The post-hoc analysis was conducted with the Tukey’s or Dunnett’s multiple comparisons unless it stated otherwise. […]

rat TRPA1 = tested on: rat TRPA1; set-up: method as in PMID 21402443; conditions: cited from earlier work

Compound	pA2 (mouse TRPA1 (mTRPA1))	pA2 expressed in µM (mouse TRPA1 (mTRPA1))	IC50 (rat TRPA1)	fold stronger than HC-030031 (rat TRPA1)
CCC(C)c1ccc(NC(=O)Cn2cnc3c2c(=O)n(C)c(=O)n3C)cc1 (stereo not drawn) [TCS-5861528]	5.34 ± 0.2	4.6 µM		
CCC(=N\O)/C(C)=C/c1ccc(F)cc1 [A-967076]	7.0 ± 0.3	0.09 µM	289 nM	about 25 fold
